# Assays:
# ChAT = ChAT mRNA expression in N2a cells (RT-PCR); format: cell-based, mouse; conditions: single ginsenoside (FIG. 7A)
# Excerpt: (§1) The present inventor reported that ChAT overexpressing human neural stem cells restored cognition with an increase of ACh levels in rat model (Park et al., Exp. Neurol., 234: 521-526, 2012). This implies that the increase of the ChAT level in cholinergic neurons plays a critical role in cognition enhancement and thus the cholinergic gene locus “VAChT/ChAT” can be a putative target for therapeutic approaches on AD. Thus the present inventor prepared transfected Neuro-2a (N2a) cells that over-express the human ChAT and APP (designated as “N2a.hChAT” and “N2a.hAPPswe”, respectively, FIG. 6) and the N2a.hChAT and N2a.hAPPswe cells were treated with the faction groups 1 to 5 isolated in the Example 3 at a centration of 50 μg/ml. Neuro-2a mouse neuroblastoma cells (Korean Cell Line Bank, Korea) were grown in DMEM supplemented with 10% fetal bovine serum (FBS), 100 U/m penicillin, and 100 μg/ml streptomycin (Invitrogen, USA) under 5% CO2 at 37° C. in tissue culture flasks. For all experiments, cells were grown to greater than 90% confluency and subjected to no more than 20 cell passages. The medium was changed every 2-3 days. Subconfluent cells were harvested and seeded at a density of 5×10^5 cells or 5×10^6 cells in poly-L-lysine-coated 35 mm or 60 mm culture plates. To recover the cells that are not completely saturated for analysis, poly-L-lysine coated 35 mm or 60 mm culture was seeded at a concentration of 5×10^5 or 5×10^6 cells on the plates. The extent of expression of hChAT and APP in the N2a.hChAT and N2a.hAAPswe cells treated with the faction groups 1 to 5 was quantified with RT-PCR using primers described in the below Table 2. At this time, beta-actin was used as an internal control.
# (§2) Specifically, total RNA extracts from N2a cells were prepared using the Trizol method (Invitrogen, USA) and cDNA was synthesized from RNA by reverse transcription of 1 μg of total RNA using a reverse transcription system (Improm-II, Promega, USA) and oligo dT primers in a total volume of 20 μL. PCR amplification was performed using the primers described in Table 2 (Bioneer, Korea). Quantitative real-time PCR reactions were run on a Rotor-Gene 6000 (Corbett Research, Australia) using SensiMix™ SYBR Hi-ROX Kit (Bioline, U.K.) in 20 μL reaction mixtures. Each real-time-PCR master mix contained 10 μL 2× enzyme master mix, 7.0 μL RNase free water, 1 μL of each primer (10 pM each), and 1 μL diluted template. The PCR was performed with an initial pre-incubation step for 15 min at 95° C., followed by 45 cycles of 95° C. for 15 s, annealing at 52° C. for 15 s, and extension at 72° C. for 10 s. Melting curve analysis was used to confirm formation of the expected PCR product, and products from all assays were additionally tested with 1.2% agarose gel electrophoresis to confirm the correct lengths. An inter-run calibrator was used, and a standard curve was created for each gene to obtain PCR efficiencies. Relative sample expression levels were calculated using Rotor-Gene 6000 Series Software 1.7, and were expressed relative to β-actin and corrected for between-run variability. Data for the experimental samples were expressed as a fold unit the internal control gene.
# (§3) In order to examine whether five ginsenosides affect the expression of ChAT related to the synthesis of acetylcholine and VAChT controlling extracellular secretion of acetylcholine, the present inventor analyzed the expression level of ChAT and VAChT after treating the five ginsenosides to N2a […] cells, respectively.
# VAChT = VAChT mRNA expression in N2a cells (RT-PCR); format: cell-based, mouse; conditions: single ginsenoside (FIG. 7B)
# Excerpt: as §1, §2, §3
# acetylcholine = conditions: Benishin et al., Pharmacol., 42: 223-229, 1991; cited from earlier work
structure (smiles),measurement,setting,value
CC(C)=CCC[C@](C)(O[C@@H]1O[C@H](CO)[C@@H](O)[C@H](O)[C@H]1O)[C@H]1CC[C@]2(C)[C@@H]1[C@H](O)C[C@@H]1[C@@]3(C)CC[C@H](O)C(C)(C)[C@@H]3[C@@H](O[C@@H]3O[C@H](CO)[C@@H](O)[C@H](O)[C@H]3O)C[C@]12C [ginsenoside Rg1],expression of ChAT mRNA,ChAT,no significant increase
same,expression of VAChT mRNA,VAChT,no significant increase
CC(C)=CCC[C@](C)(O[C@@H]1O[C@H](CO[C@@H]2O[C@H](CO)[C@@H](O)[C@H](O)[C@H]2O)[C@@H](O)[C@H](O)[C@H]1O)[C@H]1CC[C@]2(C)[C@@H]1[C@H](O)C[C@@H]1[C@@]3(C)CC[C@H](O[C@@H]4O[C@H](CO)[C@@H](O)[C@H](O)[C@H]4O[C@@H]4O[C@H](CO)[C@@H](O)[C@H](O)[C@H]4O)C(C)(C)[C@@H]3CC[C@]12C [ginsenoside Rb1],expression of ChAT mRNA,ChAT,no significant increase
same,expression of VAChT mRNA,VAChT,no significant increase
same,release of acetylcholine (ACh) from hippocampal slices,acetylcholine,facilitate the release of acetylcholine

# Source: US20160022751A1, “NOVEL COMPOSITION FOR TREATING ALZHEIMER'S DISEASE AND IMPROVING COGNITIVE FUNCTION OF ALZHEIMER'S PATIENTS” (GANGNEUNG-WONJU NATIONAL UNIVERSITY INDUSTRY ACADEMY …, priority 2014, published 2016)
